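Assay format: 96-well plates, 48-hour exposure. TGI: concentration producing complete growth inhibition.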

Assay in all cases: NCI-60 cell line screen, 48 h
The test system of experiment [1] is 786-0 renal.
In experiment [2] the test system is A498 renal.
In experiment [3] the test system is A549 NSCLC.
Experiment [4] relates to CAKI-1 renal.
Experiment [5] relates to DU-145 prostate.
Experiment [6] deals with HL-60(TB) leukemia.
The subject of experiment [7] is HOP-92 NSCLC.
The test system of experiment [8] is HS 578T breast.
For experiment [9], the system named is MDA-MB-231 breast.
The subject of experiment [10] is OVCAR-5 ovarian.
The subject of experiment [11] is SK-MEL-28 melanoma.
Experiment [12] concerns SNB-75 CNS.
Experiment [13] has as its system SW-620 colon.

Regarding `COP(=O)(OC)[C@@](O)(c1ccccc1)[C@@H](O)[C@H](O)c1ccccc1`, the TGI in experiment [1], in experiment [2], in experiment [3], in experiment [4], in experiment [5] and in experiment [6] was above 100 µM in each case. In addition, the TGI in experiment [7], in experiment [8], in [9], in experiment [10], in experiment [11] and in experiment [12] was above 100 µM in each case. In experiment [13], this compound displayed a TGI above 100 µM.
As to `CCCCOc1ccc(/C=C/C2=[N+](CCO)CCO2)cc1`, the TGI is above 100 µM in [1]; above 100 µM in experiment [2]; above 100 µM in [3]; above 100 µM in experiment [4]; above 100 µM in experiment [5]; 40.2 µM in experiment [6]. Further, the TGI in [7], in [8], in [9], in experiment [10], in experiment [11] and in experiment [12] was above 100 µM each time. In experiment [13], this compound gave a TGI of 86.5 µM.
As for `CCN1CC2=C(OC(N)=C(C#N)C2c2ccc(Cl)cc2)/C(=C/c2ccc(Cl)cc2)C1` (configuration not stated), the TGI in [1] is 29.8 µM; in experiment [2], 37.5 µM; in [3], 49.1 µM; in experiment [4], 30.5 µM; in experiment [5] it was above 100 µM; in experiment [6], above 100 µM. Moreover, the TGI in experiment [7] is 58.6 µM; in experiment [8], above 100 µM; in experiment [9], 69.2 µM; in [10], above 100 µM; in experiment [11] it was 42.9 µM; in [12] it was 34.2 µM. The TGI in [13] is above 100 µM.
For `Cc1c2ccccc2c(/C=N/NC(=O)CSCC(=O)N/N=C/c2c3ccccc3c(C)c3ccccc23)c2ccccc12`, the TGI in experiment [1] is above 52.8 µM; in [2] it was above 93.3 µM; in [3] it was above 100 µM; in experiment [4], above 100 µM; in [5], above 100 µM; in experiment [6] it was above 100 µM. The TGI is 38.6 µM in [7]; above 100 µM in experiment [8]; above 75 µM in experiment [9]; above 100 µM in [10]; above 100 µM in experiment [11]; above 73.3 µM in experiment [12]. The compound further came in with a TGI in [13] above 100 µM.
With `CC1=NN(c2ccccc2)C(=O)/C1=C1\SC(c2ccccc2)(c2ccccc2)c2ccccc21`, the TGI in [1], in experiment [2], in [3], in [4], in [5] and in experiment [6] was above 100 µM throughout. Also, the TGI in experiment [7], in [8], in experiment [9], in experiment [10], in experiment [11] and in [12] was above 100 µM in each case. This compound showed a TGI in experiment [13] above 100 µM.
Take `CCOC(=O)N1CCC2(CC1)C[C@](Sc1ccccc1)(C(C)=O)[C@H](C)O2`: the TGI in experiment [1], in experiment [2], in experiment [3], in experiment [4], in [5] and in [6] was above 100 µM each time. Moreover, the TGI in experiment [7], in [8], in experiment [9], in experiment [10], in experiment [11] and in [12] was above 100 µM throughout. The TGI in experiment [13] was above 100 µM.
Take `O=C(Nc1ccc(Cl)cc1)c1cc(S(=O)(=O)Nc2nc3ncccc3[nH]2)c(SSc2cc(Cl)c(C(=O)Nc3ccc(Cl)cc3)cc2S(=O)(=O)Nc2nc3ncccc3[nH]2)cc1Cl`: the TGI in experiment [1], in [2], in [3], in [4], in [5] and in [6] was above 100 µM each time. Moreover, the TGI in [7], in experiment [8], in [9], in experiment [10], in experiment [11] and in experiment [12] was above 100 µM each time. In experiment [13], this compound showed a TGI above 100 µM.
As for `N#C/C=C(/NC(=O)Nc1ccccc1)N1CCCC1`, the TGI is above 100 µM in experiment [1]; above 100 µM in experiment [2]; above 61.3 µM in experiment [3]; above 59.8 µM in experiment [4]; above 85.6 µM in experiment [5]; above 100 µM in experiment [6]. Besides, the TGI in [7] is above 62.2 µM; in [8], above 100 µM; in [9] it was above 100 µM; in experiment [10], above 100 µM; in [11], above 83.3 µM; in [12], above 21.4 µM. Further, in [13], the TGI is above 63.7 µM.
Regarding `CCCCCCc1cc2cc(C(=O)Nc3nc(C45CC6CC(CC(C6)C4)C5)cs3)c(=O)oc2cc1O`, the TGI is 25.6 µM in [1]; 31.3 µM in [2]; 54.4 µM in experiment [3]; 30.1 µM in [4]; above 100 µM in [5]; 19.8 µM in experiment [6]. Also, the TGI in experiment [7] is 24.4 µM; in experiment [8], 46.9 µM; in experiment [9], 22.3 µM; in experiment [10], 71.3 µM; in experiment [11], above 100 µM; in experiment [12] it was 32.4 µM. The compound also yielded a TGI in [13] above 100 µM.
Regarding `O=C(CSc1nc2ccccc2c(=O)n1-c1ccccc1)N=Nc1c(O)[nH]c2ccc(Br)cc12`, the TGI in experiment [1] is 4.33 µM; in [2], 40.8 µM; in experiment [3], 10.9 µM; in experiment [4], 3.69 µM; in [5] it was 3.39 µM; in experiment [6], 12.8 µM. The TGI in experiment [7] was 7.76 µM; in experiment [8], above 100 µM; in experiment [9] it was 3.58 µM; in experiment [10], 8.53 µM; in [11], 13.8 µM; in [12] it was 11.5 µM. Also, the TGI in [13] is above 51.2 µM.
`O=C1CC(Nc2ccccc2)c2c(Cl)sc(Cl)c21` (configuration not stated): the TGI in [1] stood at 0.784 µM; in experiment [2], 6.21 µM; in experiment [3] it was 6 µM; in experiment [4], 1.36 µM; in experiment [5], 3 µM; in experiment [6], 1.36 µM. Also, the TGI was 3.13 µM in [7]; above 100 µM in experiment [8]; 3.42 µM in [9]; 6.23 µM in experiment [10]; 3.54 µM in [11]; 4.52 µM in experiment [12].
